This is an account of results in patent US20240327393A1 (SIRONAX LTD., priority 2021, published 2024).

Broadly, the EC50 is the concentration needed to bring the measured effect to its halfway point.

Read-outs that look alike come from different tables or passages of the source.

The subject of the assay is HT-1080 (ATCC, CCL-121) cells. Kind of assay: HT-1080 cell viability assay with ferroptosis inducer RSL3 (Cell Titer-Glo). In kind it is cell-based. The settings on record: HT-1080 cells treated with RSL3, 3-fold, 10-point dilution, 1.1 μM highest concentration, read-out: EC50 (nM), ferroptosis inhibitory activity. In outline: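 HT-1080 cells (6000 per well) were cultured overnight at 37 °C, then co-treated with RSL3 and compound in a 3-fold, 10-point series topping at 1.1 μM. Viability was read by CellTiter-Glo luminescence and normalized to untreated controls. EC50 came from a sigmoidal non-linear regression fit.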

For the molecule `Cc1cc(N2C[C@@H](C)O[C@@H](C)C2)ccc1Nc1ccc2cn[nH]c2c1` [Compound 648, N-(2-methyl-4-((2S,6R)-2,6-dimethylmorpholino)phenyl)-1H-indazol-6-amine], where the note is “Homo sapiens, Table 3”, the EC50 lay in the range of 0.1 to 100 nM.

Consider `Cc1cc(N2CC(C)OC(C)C2)ccc1Nc1ccc2c(c1)CN(C)C2` (centres unmarked) [Compound 439, N-(4-(2,6-dimethylmorpholino)-2-methylphenyl)-2-methylisoindolin-5-amine], for which, for the setting “Homo sapiens, Table 2”, the EC50 lay in the range of 0.1 to 100 nM.

`Cc1cc(N2CC(O)(C(F)(F)F)C2)ccc1Nc1ccc2c(c1)OCCC(=O)N2` [Compound 649, 8-[4-[3-hydroxy-3-(trifluoromethyl)azetidin-1-yl]-2-methyl-anilino]-3,5-dihydro-2H-1,5-benzoxazepin-4-one]: the EC50 (Homo sapiens, Table 3) lay in the range of 0.1 to 100 nM.

Regarding `NC(=O)CCn1ncc2cc(Nc3ccc(N4CCC(C(F)(F)F)CC4)cc3)ccc21` [Compound 412, 3-(5-((4-(4-(trifluoromethyl)piperidin-1-yl)phenyl)amino)-1H-indazol-1-yl)propanamide], where the note is “Homo sapiens, Table 2”, the EC50 lay within 0.1 to 100 nM.

In the case of `CN1C(=O)C(C)(C)c2cc(Nc3ccc(N4CCC(C(F)(F)F)CC4)cc3)ccc21` [Compound 293, 1,3,3-trimethyl-5-((4-(4-(trifluoromethyl)piperidin-1-yl)phenyl)amino)indolin-2-one], the EC50 (Homo sapiens, Table 2) was in the range of 0.1 to 100 nM.

As for `CN1C(=O)COc2cc(Nc3ccc4c(c3)CC(C)(C)C4)ccc21` [Compound 49, 7-((2,2-dimethyl-2,3-dihydro-1H-inden-5-yl)amino)-4-methyl-2H-benzo[b][1,4] oxazin-3(4H)-one], the concentration for a half-maximal effect (EC50) (Homo sapiens, Table 2) lay within 0.1 to 100 nM.

As to `Cc1cc(N2CC(F)C2)ccc1Nc1ccc2c(c1)OCCC(=O)N2` [Compound 610, 8-((4-(3-fluoroazetidin-1-yl)-2-methylphenyl)amino)-2,3-dihydrobenzo[b][1,4]oxazepin-4(5H)-one], the concentration for a half-maximal effect (EC50) (Homo sapiens, Table 3) lay in the range of 0.1 to 100 nM.

For `Cc1cc(N2CC(C)OC(C)C2)ccc1Nc1ccc2c(c1)CNC2` (centres unmarked) [Compound 440, N-(4-(2,6-dimethylmorpholino)-2-methylphenyl)isoindolin-5-amine], the EC50 (Homo sapiens, Table 2) is 0.1 to 100 nM.

Consider `CCCCOc1ccc(Nc2ccc3c(c2)OCC(=O)N3C)cn1` [Compound 12, 7-((6-butoxypyridin-3-yl)amino)-4-methyl-2H-benzo[b][1,4]oxazin-3(4H)-one], for which the EC50 (Homo sapiens, Table 2) was in the range of 0.1 to 100 nM.

For `CNCCCN1C(=O)COc2cc(Nc3ccc(N4CC(C)OC(C)C4)c(C)c3)ccc21` (centres unmarked) [Compound 56, 7-((4-(2,6-dimethylmorpholino)-3-methylphenyl)amino)-4-(3-(methylamino)propyl)-2H-benzo[b][1,4]oxazin-3(4H)-one], the EC50 (Homo sapiens, Table 2) fell in the range of 0.1 to 100 nM.

On to `CC1(C)c2ccc(Nc3ccc(N4CCC(C(F)(F)F)CC4)cc3)cc2CN1C(=O)C1CC1` [Compound 189, cyclopropyl(1,1-dimethyl-5-((4-(4-(trifluoromethyl)piperidin-1-yl)phenyl)amino)isoindolin-2-yl)methanone], for which the EC50 (Homo sapiens, Table 2) is 0.1 to 100 nM.

Take `CC1CC(c2ccc(Nc3ccc4c(c3)OCC(=O)N4C)cc2)CC(C)O1` (centres unmarked) [Compound 64, 7-((4-(2,6-dimethyltetrahydro-2H-pyran-4-yl)phenyl)amino)-4-methyl-2H-benzo[b][1,4]oxazin-3(4H)-one]: the EC50 (Homo sapiens, Table 2) lay within 0.1 to 100 nM.

With `C[C@H]1CN(c2ccc(Nc3ccc4c(c3)OCC(=O)N4)cc2)CCN1C(=O)C(F)(F)F` [Compound 553, (S)-7-((4-(3-methyl-4-(2,2,2-trifluoroacetyl)piperazin-1-yl)phenyl)amino)-2H-benzo[b][1,4]oxazin-3(4H)-one], the half-maximal effective concentration (EC50) (Homo sapiens, Table 3) lay within 0.1 to 100 nM.

Turning to `Cc1cc(N2CCC(C(F)(F)F)CC2)ccc1Nc1cnc2c(c1)OCC(=O)N2` [Compound 460, 7-((2-methyl-4-(4-(trifluoromethyl)piperidin-1-yl)phenyl)amino)-2H-pyrido[3,2-b][1,4]oxazin-3(4H)-one], the EC50 (Homo sapiens, Table 3) was in the range of 0.1 to 100 nM.

For `CC1CN(c2ccc(Nc3ccc4c(c3)OCC(=O)N4)cc2)CC(C)O1` (centres unmarked) [Compound 140, 7-((4-(2,6-dimethylmorpholino)phenyl)amino)-2H-benzo[b][1,4]oxazin-3(4H)-one], the concentration for a half-maximal effect (EC50) (Homo sapiens, Table 2) was in the range of 0.1 to 100 nM.

As for `O=C1COc2cc(Nc3ccc(N4CCC(C(F)(F)F)CC4)cc3Cl)ccc2N1` [Compound 448, 7-({2-chloro-4-[4-(trifluoromethyl)piperidin-1-yl]phenyl}amino)-2,4-dihydro-1,4-benzoxazin-3-one], the EC50 (Homo sapiens, Table 3) is 0.1 to 100 nM.

For the molecule `COC1(C(F)(F)F)CCN(c2ccc(Nc3ccc4c(c3)OCC(=O)N4)c(C)c2)C1` (centres unmarked) [Compound 616, 7-((4-(3-methoxy-3-(trifluoromethyl)pyrrolidin-1-yl)-2-methylphenyl)amino)-2H-benzo[b][1,4]oxazin-3(4H)-one], the concentration for a half-maximal effect (EC50) (Homo sapiens, Table 3) fell in the range of 0.1 to 100 nM.

Consider `O=C1COc2cc(Nc3ccc(N4CCC(C(F)(F)F)CC4)c(F)c3)ccc2N1` [Compound 486, 7-((3-fluoro-4-(4-(trifluoromethyl)piperidin-1-yl)phenyl)amino)-2H-benzo[b][1,4]oxazin-3(4H)-one], for which, under “Homo sapiens, Table 3”, the EC50 was in the range of 0.1 to 100 nM.

Regarding `COc1cc(Nc2ccc3c(c2)OCC(=O)N3)c(C)cc1N1CCC(C(F)(F)F)CC1` [Compound 546, 7-((5-methoxy-2-methyl-4-(4-(trifluoromethyl)piperidin-1-yl)phenyl)amino)-2H-benzo[b][1,4]oxazin-3(4H)-one], the concentration for a half-maximal effect (EC50) (Homo sapiens, Table 3) was 0.1 to 100 nM.

As for `CC1CCCN(c2ccc(Nc3ccc4c(c3)CN(C)C4=O)cc2)C1` (centres unmarked) [Compound 241, 2-methyl-5-((4-(3-methylpiperidin-1-yl)phenyl)amino)isoindolin-1-one], for the setting “Homo sapiens, Table 2”, the 50% effective concentration (EC50) lay in the range of 0.1 to 100 nM.

Take `CNCCn1c(=O)n(C)c2cc(Nc3ccc(N4CC(C)OC(C)C4)cc3)ccc21` (centres unmarked) [Compound 436, 5-((4-(2,6-dimethylmorpholino)phenyl)amino)-3-methyl-1-(2-(methylamino)ethyl)-1H-benzo[d]imidazol-2(3H)-one]: for the setting “Homo sapiens, Table 2”, the EC50 was 0.1 to 100 nM.

Turning to `CC1CCN(c2ccc(Nc3ccc4c(c3)n(C)c(=O)n4C)cc2)CC1` [Compound 287, 1,3-dimethyl-5-((4-(4-methylpiperidin-1-yl)phenyl)amino)-1,3-dihydro-2H-benzo[d]imidazol-2-one], the EC50 (Homo sapiens, Table 2) is 0.1 to 100 nM.

Take `COc1cc(Nc2cc(C)c3c(c2)OCC(=O)N3)c(C)cc1N1CCC(C(F)(F)F)CC1` [Compound 548, 7-((5-methoxy-2-methyl-4-(4-(trifluoromethyl)piperidin-1-yl)phenyl)amino)-5-methyl-2H-benzo[b][1,4]oxazin-3(4H)-one]: the concentration for a half-maximal effect (EC50) (Homo sapiens, Table 3) fell in the range of 0.1 to 100 nM.

Consider `Cc1cc(N2CCC(C(F)(F)F)CC2)ccc1Nc1ccc2c(c1)OCC(=O)N2C` [Compound 78, 4-methyl-7-((2-methyl-4-(4-(trifluoromethyl)piperidin-1-yl)phenyl)amino)-2H-benzo[b][1,4]oxazin-3(4H)-one], for which the EC50 (Homo sapiens, Table 2) was 0.1 to 100 nM.

As to `CCOc1ccc(Nc2ccc3c(c2)n(C)c(=O)n3C)cc1` [Compound 309, 5-((4-ethoxyphenyl)amino)-1,3-dimethyl-1,3-dihydro-2H-benzo[d]imidazol-2-one], the 50% effective concentration (EC50) (Homo sapiens, Table 2) lay in the range of 0.1 to 100 nM.

As for `CC1CCN(c2ccc(Nc3ccc4c(c3)N(C)CC(=O)N4C)cc2)CC1` [Compound 102, 1,4-dimethyl-6-((4-(4-methylpiperidin-1-yl)phenyl)amino)-3,4-dihydroquinoxalin-2(1H)-one], the 50% effective concentration (EC50) (Homo sapiens, Table 2) lay in the range of 0.1 to 100 nM.

Regarding `CC1CN(c2ccc(Nc3ccc4c(c3)CNC4)cc2)CC(C)O1` (centres unmarked) [Compound 431, N-(4-(2,6-dimethylmorpholino)phenyl)isoindolin-5-amine], the EC50 (Homo sapiens, Table 2) lay in the range of 0.1 to 100 nM.

With `Cc1cc(N2CC3CC3C2)ccc1Nc1ccc2c(c1)OCC(=O)N2` (centres unmarked) [Compound 641, 7-((4-(3-azabicyclo[3.1.0]hexan-3-yl)-2-methylphenyl)amino)-2H-benzo[b][1,4]oxazin-3(4H)-one], for the setting “Homo sapiens, Table 3”, the EC50 is 0.1 to 100 nM.

With `Cc1cc(N2CCC(C(F)(F)F)CC2)ccc1Nc1ccc2nccn2c1` [Compound 624, N-(2-methyl-4-(4-(trifluoromethyl)piperidin-1-yl)phenyl) imidazo[1,2-a]pyridin-6-amine], the EC50 (Homo sapiens, Table 3) fell in the range of 0.1 to 100 nM.

As to `Cc1cc(N2CC(C)OC(C)C2)ccc1Nc1ccc2c(c1)OCC(=O)N2C` (centres unmarked) [Compound 51, 7-((4-(2,6-dimethylmorpholino)-2-methylphenyl)amino)-4-methyl-2H-benzo[b][1,4]oxazin-3(4H)-one], the EC50 (Homo sapiens, Table 2) was in the range of 0.1 to 100 nM.

For `Cc1cc(N2CCC(C(F)(F)F)C2)ccc1Nc1ccc2c(c1)OCC(=O)N2` (centres unmarked) [Compound 502, 7-((2-methyl-4-(3-(trifluoromethyl)pyrrolidin-1-yl)phenyl)amino)-2H-benzo[b][1,4]oxazin-3(4H)-one], for the setting “Table 3”, the EC50 lay within 0.1 to 100 nM.

Turning to `Cc1c(Nc2ccc3c(c2)OCC(=O)N3)ccc(N2CCC(C(F)(F)F)CC2)c1C` [Compound 487, 7-((2,3-dimethyl-4-(4-(trifluoromethyl)piperidin-1-yl)phenyl)amino)-2H-benzo[b][1,4]oxazin-3(4H)-one], for the setting “Homo sapiens, Table 3”, the concentration for a half-maximal effect (EC50) is 0.1 to 100 nM.

For the molecule `COc1cc(Nc2ccc(N3CCC(C(F)(F)F)CC3)cc2)cc2c1ccn2C` [Compound 395, 4-methoxy-1-methyl-N-(4-(4-(trifluoromethyl)piperidin-1-yl)phenyl)-1H-indol-6-amine], the EC50 (Homo sapiens, Table 2) fell in the range of 0.1 to 100 nM.

On to `CNCc1cnc2cc(Nc3ccc(N4CCC(C(F)(F)F)CC4)cc3C)ccn12` [Compound 609, N-(2-methyl-4-(4-(trifluoromethyl)piperidin-1-yl)phenyl)-3-((methylamino)methyl)imidazo[1,2-a]pyridin-7-amine], for which the 50% effective concentration (EC50) (Homo sapiens, Table 3) lay in the range of 0.1 to 100 nM.

In the case of `CCCOc1cc(Nc2ccc3c(c2)OCC(=O)N3C)ccc1N1CCC(C(F)(F)F)CC1` [Compound 8, 4-methyl-7-((3-propoxy-4-(4-(trifluoromethyl)piperidin-1-yl)phenyl)amino)-2H-benzo[b][1,4]oxazin-3(4H)-one], for the setting “Homo sapiens, Table 2”, the EC50 was 0.1 to 100 nM.
